According to publication PMC8589421, “Impact of Type II LRRK2 inhibitors on signaling and mitophagy” (Biochemical Journal, 2021):
Like-named read-outs stand apart in the source and are kept apart here.

Assays:
Flag-LRRK2[G2019S] = target: T1, Flag-LRRK2[G2019S] (Homo sapiens, UniProt Q5S007, G2019S); assay: IC50 LRRK2 Nictide assay, G2019S; type: biochemical; conditions: IC50 LRRK2 G2019S (100 µM ATP), Nictide peptide substrate, value ± SD
T1 construct: towards full length wild type and G2019S pathogenic LRRK2 mutant in a biochemical assay; Flag (N); purchased ThermoFisher Scientific A15201

[1] = test system: Dundee panel of 140 protein kinases; assay: Kinase profiling; type: biochemical
From the text: […] Results for each kinase are presented as the mean kinase activity ±S.D. for an assay undertaken in duplicate relative to a control kinase assay in which the inhibitor was omitted. Abbreviations and assay conditions used for each kinase are available (http://www.kinase-screen.mrc.ac.uk/services/premier-screen).

[2] = test system: Rab10 pThr73, LRRK2 [G2019S]; assay: Rab10 Thr73 phospho-immunoblot in LRRK2[G2019S] knock-in MEFs; type: cell-based, mouse; conditions: LRRK2[G2019S] knock-in MEFs, 2 h, read-out: LRRK2 [G2019S] Rab10 pThr73 IC50
Experimental: (§1) Wild-type and homozygous LRRK2 [R1441C] (Jax, stock number: 009346), LRRK2[G2019S] Taconic, (model 13940) and LRRK2 [A2016T] (Jax, stock number: 021828)[7] knock-in MEF cells were isolated from littermate-matched mouse embryos on a C57BL/6J background at day E12.5 as described previously. MEFs were grown in Dulbecco's modified Eagle medium (DMEM GIBCO, #11960-085) containing 10% (by vol) fetal bovine serum (FBS), 2 mM L-glutamine, 100 U/ml penicillin, and […] streptomycin supplemented with non-essential amino acids and 1 mM sodium pyruvate. Human embryonic kidney 293 (HEK293) (#ATCC CRL-1573) and HeLa (#ATCC CCL-2) cells were purchased from American Tissue Culture Collection (ATCC) and cultured in DMEM containing 10% (by vol) FBS, 2 mM L-glutamine, 100 U/ml penicillin, and […] streptomycin. All cells were grown at 37°C, 5% (by vol) CO2 in a humidified atmosphere and regularly tested for mycoplasma contamination.
Inhibitors were dissolved in dimethyl sulfoxide (DMSO) (Sigma, #D2650). The inhibitors were diluted 1000× into cell medium. The equivalent volume of DMSO was added to the minus inhibitor controls. Experiments were performed in six-well plates, 10 cm dishes or 15 cm dishes depending on the amount of cell extract required.
(§2) Cells were lysed in an ice-cold lysis buffer containing 50 mM Tris–HCl, pH 7.4, 1% (by vol) Triton X-100, 10% (by vol) glycerol, 150 mM NaCl, 1 mM sodium orthovanadate, 50 mM NaF, 10 mM 2-glycerophosphate, 5 mM sodium pyrophosphate, 1 µg/ml microcystin-LR, and cOmplete EDTA-free protease inhibitor cocktail (Roche, #11836170001). Lysates were incubated on ice for 30 min and clarified by centrifugation at 20 800×g at 4°C for 20 min. Supernatants were quantified by Bradford assay (Bio-Rad Protein Assay Dye Reagent Concentrate #5000006) and samples prepared in 1× lithium dodecyl sulfate sample buffer final concentration (NuPage LDS Sample buffer 4× Invitrogen, #NP0008). When not deployed immediately, lysates were snap-frozen in liquid nitrogen and stored at −80°C until use. […]

[3] = test system: LRRK2 Ser935 phosphorylation, LRRK2[G2019S]; assay: LRRK2 Ser935 phospho-immunoblot in LRRK2[G2019S] knock-in MEFs; type: cell-based, mouse; conditions: Figure 4B
Experimental: as §1, with “All cells were grown at 37°C, 5% (by vol) CO2 in a humidified atmosphere and regularly tested for mycoplasma contamination.” left out
as §2, with “Lysates were incubated on ice for 30 min and clarified by centrifugation at 20 800×g at 4°C for 20 min.” left out, “#NP0008).” for “#NP0008). When not deployed immediately, lysates were snap-frozen in liquid nitrogen and stored at −80°C until use.”

LRRK2 14-3-3 binding = test system: T2, LRRK2 14-3-3 binding; assay: Analysis of 14-3-3 binding in HEK293 cells overexpressing wild-type LRRK2; type: cell-based, human; conditions: 5 μM GZD-824 for 4 h, 1 μM GSK3357679A
T2 construct: host or cells: HEK293
Experimental: This was undertaken as described previously. Briefly, wild-type FLAG-LRRK2 was transiently expressed in HEK293 cells with HA-Rab29. Twenty-four hours post-transfection cells were lysed with lysis buffer and snap frozen. LRRK2 was immunoprecipitated from 4 mg of lysate using 20 μl anti-FLAG-M2 agarose beads (Sigma, #A2220) for 2 h in rotation at +4°C. Immunoprecipitates were washed once with lysis buffer supplemented with 0.5% (by vol) Nonidet P-40 (instead of Triton X-100) and 0.5 M NaCl followed by two washes. Samples were eluted in 2× LDS sample buffer (20 µl per 10 µl of resin) and heated at 70°C for 10 min. After centrifugation through 0.22 µm Spin X filter, the eluted protein was subjected to immunoblotting with the indicated antibodies. An amount of 10 μl of the final reaction mixture was needed for the detection of binding of endogenous 14-3-3 and 1 µl for detection of LRRK2.

T1 sequence (Q5S007 whole entry G2019S): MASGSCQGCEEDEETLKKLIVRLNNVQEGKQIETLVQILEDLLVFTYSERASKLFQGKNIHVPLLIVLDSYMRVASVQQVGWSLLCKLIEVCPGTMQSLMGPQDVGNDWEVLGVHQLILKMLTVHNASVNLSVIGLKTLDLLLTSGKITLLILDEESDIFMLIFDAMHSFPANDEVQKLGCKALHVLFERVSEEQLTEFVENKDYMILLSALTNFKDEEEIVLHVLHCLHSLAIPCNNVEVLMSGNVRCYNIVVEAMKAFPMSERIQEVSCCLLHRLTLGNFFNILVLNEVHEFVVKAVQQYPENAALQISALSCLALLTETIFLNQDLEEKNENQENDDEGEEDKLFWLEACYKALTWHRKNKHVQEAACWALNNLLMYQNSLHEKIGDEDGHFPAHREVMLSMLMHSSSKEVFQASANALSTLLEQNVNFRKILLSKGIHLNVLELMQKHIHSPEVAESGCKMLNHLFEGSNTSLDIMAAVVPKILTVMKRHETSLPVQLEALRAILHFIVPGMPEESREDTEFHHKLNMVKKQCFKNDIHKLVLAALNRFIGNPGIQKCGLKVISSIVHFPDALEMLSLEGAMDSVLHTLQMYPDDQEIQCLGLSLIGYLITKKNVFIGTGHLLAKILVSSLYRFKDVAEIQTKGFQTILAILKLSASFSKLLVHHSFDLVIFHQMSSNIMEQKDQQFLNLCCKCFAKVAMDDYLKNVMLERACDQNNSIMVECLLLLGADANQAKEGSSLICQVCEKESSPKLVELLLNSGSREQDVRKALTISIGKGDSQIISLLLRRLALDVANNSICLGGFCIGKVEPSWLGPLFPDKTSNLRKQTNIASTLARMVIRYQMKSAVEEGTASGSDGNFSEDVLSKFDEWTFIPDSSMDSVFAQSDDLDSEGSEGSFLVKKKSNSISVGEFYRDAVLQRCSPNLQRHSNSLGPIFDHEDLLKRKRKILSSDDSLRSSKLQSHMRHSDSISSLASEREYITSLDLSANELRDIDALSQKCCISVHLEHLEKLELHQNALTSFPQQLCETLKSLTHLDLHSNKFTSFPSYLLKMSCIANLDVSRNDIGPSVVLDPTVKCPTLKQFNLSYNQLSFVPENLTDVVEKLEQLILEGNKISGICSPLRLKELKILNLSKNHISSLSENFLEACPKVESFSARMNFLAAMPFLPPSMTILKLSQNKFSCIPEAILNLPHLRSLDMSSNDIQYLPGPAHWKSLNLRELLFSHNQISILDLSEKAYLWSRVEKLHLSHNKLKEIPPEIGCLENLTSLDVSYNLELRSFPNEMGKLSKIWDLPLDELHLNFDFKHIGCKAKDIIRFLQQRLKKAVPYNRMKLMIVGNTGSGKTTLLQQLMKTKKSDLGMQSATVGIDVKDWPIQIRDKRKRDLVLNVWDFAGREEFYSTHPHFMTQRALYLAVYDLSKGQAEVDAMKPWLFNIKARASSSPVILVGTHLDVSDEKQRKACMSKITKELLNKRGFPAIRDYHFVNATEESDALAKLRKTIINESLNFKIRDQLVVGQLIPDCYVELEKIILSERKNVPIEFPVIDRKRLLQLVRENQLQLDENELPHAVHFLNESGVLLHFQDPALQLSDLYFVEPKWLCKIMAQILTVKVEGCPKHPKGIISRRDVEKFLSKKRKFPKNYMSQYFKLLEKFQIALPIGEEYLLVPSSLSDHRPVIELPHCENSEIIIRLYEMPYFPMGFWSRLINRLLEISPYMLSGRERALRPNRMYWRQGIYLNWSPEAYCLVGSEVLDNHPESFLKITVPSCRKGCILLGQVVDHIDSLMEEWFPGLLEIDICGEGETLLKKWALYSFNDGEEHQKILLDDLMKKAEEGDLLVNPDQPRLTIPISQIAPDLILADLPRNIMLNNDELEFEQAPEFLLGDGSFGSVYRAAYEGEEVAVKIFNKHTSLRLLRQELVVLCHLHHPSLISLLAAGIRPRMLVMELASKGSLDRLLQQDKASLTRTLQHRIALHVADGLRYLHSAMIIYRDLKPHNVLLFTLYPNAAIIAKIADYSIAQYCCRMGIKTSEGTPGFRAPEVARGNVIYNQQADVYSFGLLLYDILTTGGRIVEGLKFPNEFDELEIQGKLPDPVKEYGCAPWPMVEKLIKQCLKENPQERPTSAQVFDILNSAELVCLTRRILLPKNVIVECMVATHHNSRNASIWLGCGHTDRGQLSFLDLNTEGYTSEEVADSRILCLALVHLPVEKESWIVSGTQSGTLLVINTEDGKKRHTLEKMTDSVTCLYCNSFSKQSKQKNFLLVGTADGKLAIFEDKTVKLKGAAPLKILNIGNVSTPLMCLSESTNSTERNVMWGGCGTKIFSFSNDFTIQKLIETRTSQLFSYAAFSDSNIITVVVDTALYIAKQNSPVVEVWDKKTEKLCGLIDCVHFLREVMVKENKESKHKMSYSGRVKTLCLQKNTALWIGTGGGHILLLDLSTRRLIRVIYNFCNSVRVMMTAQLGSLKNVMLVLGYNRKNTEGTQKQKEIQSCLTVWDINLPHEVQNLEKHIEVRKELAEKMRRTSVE

## Cc1ccc(C(=O)Nc2ccc(CN3CCN(C)CC3)c(C(F)(F)F)c2)cc1C#Cc1cnc2[nH]ncc2c1 [GZD-824]
Flag-LRRK2[G2019S]
  IC50: 80 nM
[1]; 0.1 μM inhibitor
  number of the 140 kinases assayed suppressed by over 80%: 22
[1]; 1 μM inhibitor
  number of the 140 kinases assayed suppressed by over 80%: 43
[2]
  IC50: 233 nM
[2]; Mus musculus
  IC50: 233 nM
[3]
  effect on Ser935 phosphorylation in LRRK2[G2019S] cells: did not impact Ser935 phosphorylation
LRRK2 14-3-3 binding
  impact on 14-3-3 binding to LRRK2: no significant impact
